# Laboratory results from patent US20230181614A1, “ADMINISTRATION OF CITICOLINE TO IMPROVE COGNITIVE PERFORMANCE, ATTENTIONAL PERFORMANCE, AND MOTOR FUNCTION” (KYOWA HAKKO BIO CO., LTD., priority 2014, published 2023).
# What was measured:
# [1] = system: Healthy subjects, ages 13-18; assay: California Verbal Learning Test I and II (CVLT); assay type: in vivo, human; settings: for CVLT I & II List A Long Delay V1, Mean / CVLT I & II List A Short Delay V1, Mean / CVLT I & II List A Trial 1 V1, Mean / CVLT I & II List A Trial 5 V1, Mean / CVLT I & II List A Trials 1-5 V1, Mean / CVLT I & II List B V1, Mean: Visit 1; for V3-V1 CVLT I & II Difference List A Long Delay, Mean / V3-V1 CVLT I & II Difference List A Short Delay, Mean / V3-V1 CVLT I & II Difference List A Trial 1, Mean / V3-V1 CVLT I & II Difference List A Trial 5, Mean / V3-V1 CVLT I & II Difference List A Trials 1-5, Mean / V3-V1 CVLT I & II Difference List B Trial 1, Mean: Visit difference score; for CVLT I & II List A Long Delay V3, Mean / CVLT I & II List A Short Delay V3, Mean / CVLT I & II List A Trial 1 V3, Mean / CVLT I & II List A Trial 5 V3, Mean / CVLT I & II List A Trials 1-5 V3, Mean / CVLT I & II List B V3, Mean: Visit 3
# Excerpt: Study participants were screened by telephone prior to study enrollment. Healthy subjects, ages 13-18, with no significant medical conditions and no history of co-morbid psychiatric disorder, current Axis I or II diagnosis, or previous participation in a pharmacotherapeutic trial, were selected. Use of any psychotropic medication or any previous head injury resulting in loss of consciousness for 5 or more minutes were used as exclusion criteria. While no participant met criteria for a neuropsychiatric disorder at enrollment, clinical assessments were still completed throughout the study to evaluate changes in mood state. In addition, self-reports of sleep habits, lifestyle, and exercise routines were also administered at baseline as well as at each study visit to assess changes in health habits during study participation. Following the completion of Visit 1 assessment, participants were given their 28-day supply of citicoline (250 mg or 500 mg) or placebo, which was randomly assigned. They were instructed to take one capsule a day every day for the next 28 days. Visit 2 occurred fourteen days after Visit 1. At Visit 2, the remaining study pills were counted and participant dosage calendars were checked to ensure compliance with the protocol. Additional neuropsychological measures and clinical assessments were administered during this visit. Participants returned for Visit 3 fourteen days later, on the 28th day of their study participation. The pill bottle and the dosage calendar were collected from each participant. Urine and blood were again obtained. Participants also participated in similar clinical and neuropsychological testing and clinical measures that were given during visit 1. […] Subjects are asked to remember a 16-item word list, which is presented on five trials. After each trial, the subject is asked to recall all of the words that they can remember. A second list is then presented to provide an interference condition. The subject is then asked to recall the first word list. After a temporal delay, the subject is again asked to recall the first word list. Test results provide scores for assessing verbal learning, strength of memory following interfering tasks, proactive interference, accuracy of recognition memory and storage versus retrieval of newly learned information. The CVLT was administered at all three visits.
# [2] = system: Healthy subjects, ages 13-18; assay: Trail Making Test; assay type: in vivo, human; design: Trail Making B V1 (Mean) / Trail Making B V3 (Mean) / Trail Making B-A V1 (Mean) / Trail Making B-A V3 (Mean) / V3-V1 Trail Making B (Mean) / V3-V1 Trail Making B-A (Mean): unit not given here; settings: for Trail Making A V1 (Mean) / Trail Making B V1 (Mean) / Trail Making B-A V1 (Mean): Visit 1; for Trail Making A V3 (Mean) / Trail Making B V3 (Mean) / Trail Making B-A V3 (Mean): Visit 3; for V3-V1 Trail Making A (Mean) / V3-V1 Trail Making B (Mean) / V3-V1 Trail Making B-A (Mean): visit difference score V3-V1
# Excerpt: Study participants were screened by telephone prior to study enrollment. Healthy subjects, ages 13-18, with no significant medical conditions and no history of co-morbid psychiatric disorder, current Axis I or II diagnosis, or previous participation in a pharmacotherapeutic trial, were selected. Use of any psychotropic medication or any previous head injury resulting in loss of consciousness for 5 or more minutes were used as exclusion criteria. While no participant met criteria for a neuropsychiatric disorder at enrollment, clinical assessments were still completed throughout the study to evaluate changes in mood state. In addition, self-reports of sleep habits, lifestyle, and exercise routines were also administered at baseline as well as at each study visit to assess changes in health habits during study participation.
# Following the completion of Visit 1 assessment, participants were given their 28-day supply of citicoline (250 mg or 500 mg) or placebo, which was randomly assigned. They were instructed to take one capsule a day every day for the next 28 days.
# Visit 2 occurred fourteen days after Visit 1. At Visit 2, the remaining study pills were counted and participant dosage calendars were checked to ensure compliance with the protocol. Additional neuropsychological measures and clinical assessments were administered during this visit.
# Participants returned for Visit 3 fourteen days later, on the 28th day of their study participation. The pill bottle and the dosage calendar were collected from each participant. Urine and blood were again obtained. Participants also participated in similar clinical and neuropsychological testing and clinical measures that were given during visit 1.
# The Trail Making Test is designed to measure visual conceptual and visuomotor tracking, as well as maintenance of cognitive set. On Trial A the participant must draw lines to connect consecutively numbered circles on one work sheet (1-2-3-4 etc.). For Part B they must connect numbered and lettered circles by alternating between the two sequences (i.e., 1-A-2-B etc.). Part B is the more sensitive of the two tests -- particularly to frontal-lobe dysfunction -- as scores on this section are indicative of the participant’s ability to shift sets (numeric to alphabetical order) and process concurrent stimuli. This test was administered on all three visits.
smiles,measurement,setting,value
"C[N+](C)(C)CCOP(=O)(O)OP(=O)([O-])OC[C@H]1O[C@@H](n2ccc(N)nc2=O)[C@H](O)[C@@H]1O [citicoline, Cytidine 5′-diphosphocholine]","CVLT I & II List A Long Delay V1, Mean",[1]; 250 mg/day group,10.26
same,"CVLT I & II List A Short Delay V1, Mean",[1]; 250 mg/day group,10.56
same,"CVLT I & II List A Trial 1 V1, Mean",[1]; 250 mg/day group,6.11
same,"CVLT I & II List A Trial 5 V1, Mean",[1]; 250 mg/day group,12.33
same,"CVLT I & II List A Trials 1-5 V1, Mean",[1]; 250 mg/day group,50.52
same,"CVLT I & II List B V1, Mean",[1]; 250 mg/day group,5.78
same,"V3-V1 CVLT I & II Difference List A Long Delay, Mean",[1]; 250 mg/day group,0.81
same,"V3-V1 CVLT I & II Difference List A Short Delay, Mean",[1]; 250 mg/day group,1.04
same,"V3-V1 CVLT I & II Difference List A Trial 1, Mean",[1]; 250 mg/day group,1.63
same,"V3-V1 CVLT I & II Difference List A Trial 5, Mean",[1]; 250 mg/day group,0.52
same,"V3-V1 CVLT I & II Difference List A Trials 1-5, Mean",[1]; 250 mg/day group,3.11
same,"V3-V1 CVLT I & II Difference List B Trial 1, Mean",[1]; 250 mg/day group,0.48
same,"CVLT I & II List A Long Delay V3, Mean",[1]; 250 mg/day group,11.07
same,"CVLT I & II List A Short Delay V3, Mean",[1]; 250 mg/day group,11.59
same,"CVLT I & II List A Trial 1 V3, Mean",[1]; 250 mg/day group,7.74
same,"CVLT I & II List A Trial 5 V3, Mean",[1]; 250 mg/day group,12.85
same,"CVLT I & II List A Trials 1-5 V3, Mean",[1]; 250 mg/day group,53.63
same,"CVLT I & II List B V3, Mean",[1]; 250 mg/day group,6.26
same,"CVLT I & II List A Long Delay V1, Mean",[1]; 500 mg/day group,9.79
same,"CVLT I & II List A Short Delay V1, Mean",[1]; 500 mg/day group,10.25
same,"CVLT I & II List A Trial 1 V1, Mean",[1]; 500 mg/day group,6.58
same,"CVLT I & II List A Trial 5 V1, Mean",[1]; 500 mg/day group,11.83
same,"CVLT I & II List A Trials 1-5 V1, Mean",[1]; 500 mg/day group,49.04
same,"CVLT I & II List B V1, Mean",[1]; 500 mg/day group,6.67
same,"V3-V1 CVLT I & II Difference List A Long Delay, Mean",[1]; 500 mg/day group,1.13
same,"V3-V1 CVLT I & II Difference List A Short Delay, Mean",[1]; 500 mg/day group,0.96
same,"V3-V1 CVLT I & II Difference List A Trial 1, Mean",[1]; 500 mg/day group,1.00
same,"V3-V1 CVLT I & II Difference List A Trial 5, Mean",[1]; 500 mg/day group,0.88
same,"V3-V1 CVLT I & II Difference List A Trials 1-5, Mean",[1]; 500 mg/day group,3.75
same,"V3-V1 CVLT I & II Difference List B Trial 1, Mean",[1]; 500 mg/day group,-0.33
same,"CVLT I & II List A Long Delay V3, Mean",[1]; 500 mg/day group,10.92
same,"CVLT I & II List A Short Delay V3, Mean",[1]; 500 mg/day group,11.21
same,"CVLT I & II List A Trial 1 V3, Mean",[1]; 500 mg/day group,7.58
same,"CVLT I & II List A Trial 5 V3, Mean",[1]; 500 mg/day group,12.71
same,"CVLT I & II List A Trials 1-5 V3, Mean",[1]; 500 mg/day group,52.79
same,"CVLT I & II List B V3, Mean",[1]; 500 mg/day group,6.33
same,Trail Making A V1 (Mean),[2]; 250 mg/day group,11.16
same,Trail Making B V1 (Mean),[2]; 250 mg/day group,29.15
same,Trail Making B-A V1 (Mean),[2]; 250 mg/day group,17.99
same,Trail Making A V3 (Mean),[2]; 250 mg/day group,9.37
same,Trail Making B V3 (Mean),[2]; 250 mg/day group,18.40
same,Trail Making B-A V3 (Mean),[2]; 250 mg/day group,9.00
same,V3-V1 Trail Making A (Mean),[2]; 250 mg/day group,-1.80
same,V3-V1 Trail Making B (Mean),[2]; 250 mg/day group,-10.75
same,V3-V1 Trail Making B-A (Mean),[2]; 250 mg/day group,-8.99
same,Trail Making A V1 (Mean),[2]; 500 mg/day group,12.89
same,Trail Making B V1 (Mean),[2]; 500 mg/day group,28.60
same,Trail Making B-A V1 (Mean),[2]; 500 mg/day group,15.71
same,Trail Making A V3 (Mean),[2]; 500 mg/day group,9.28
same,Trail Making B V3 (Mean),[2]; 500 mg/day group,23.02
same,Trail Making B-A V3 (Mean),[2]; 500 mg/day group,13.73
same,V3-V1 Trail Making A (Mean),[2]; 500 mg/day group,-3.60
same,V3-V1 Trail Making B (Mean),[2]; 500 mg/day group,-5.58
same,V3-V1 Trail Making B-A (Mean),[2]; 500 mg/day group,-1.98
